Measurements published in patent publication US7994185B2, “Benzene sulfonamide thiazole and oxazole compounds” (Glaxo Smith Kline LLC, priority 2008, dated 2011).
pIC50: −log10 of the molar value. Like-named read-outs stand apart in the source and are kept apart here.

Assays:
[1] = system: Human colon tumor cells (Colo205); test: Cell growth inhibition assay (CellTiter-Glo), Colo205; format: cell-based
Method: Human colon tumor cells (Colo205) were cultured in RPMI (Mediatech 50-020-PB) containing 10% FBS and 1% penicillin-streptomycin.
The next day, compounds were diluted as follow: For 96-well assays, 13.5 μL of compound in DMSO were diluted using nine (9) serial 1:3 dilutions of 4.5 μL in 9 μL of DMSO. Medium (270 μL/well of RPMI with 10% FBS and 1% penicillin-streptomycin) was added to the plates. Aliquots (7 μL) were added to cells in the final assay giving a final DMSO concentration of 0.2%. For 384-well assays, 15 μL of compound in DMSO were diluted using nine (9) serial 1:3 dilutions of 5 μL in 10 μL of DMSO, followed by a further dilution of 5 μL of compound with 95 μL of medium, of which 2 μL were added to cells in the final assay giving a final DMSO concentration of 0.2%. Cells were incubated at 37° C., 5% CO2 for 3 days.
Total ATP was measured (as a surrogate estimate of cell number) using CellTiter-Glo® reagent (Promega G7571). Briefly, plates were removed from the incubator and allowed to equilibrate to room temperature for 30 minutes. CellTiter-Glo® (25 μL or 55 μL for 384-well or 96-well assays, respectively) reagent was added to each well and plates were shaken on an orbital plate shaker for 2 minutes. Plates were incubated without shaking for a further 30 minutes and read on an LJL Analyst GT reader in luminometer mode with an integration time of 0.5 seconds per well. Percent inhibition of cell growth was calculated relative to DMSO vehicle-treated control wells.

[2] = biological target: T1, BRAFV600E full-length (amino acids 2-766) (Homo sapiens, UniProt P15056, V600E); test: B-Raf Accelerated MEK ATPase assay (BRAMA); format: biochemical; settings: categorized; for IC50: Table 1b, read-out: B-Raf pIC50 (converted)
T1 construct: His6-tagged BRAFV600E full-length (amino acids 2-766); His6; made in house; host or cells: baculovirus expression system (insect cells)
Method: Compounds of the present invention were tested for B-Raf protein serine kinase inhibitory activity in a B-Raf Accelerated MEK ATPase assay (BRAMA). […] The BRAMA assay is a high sensitivity assay which measures an intrinsic MEK-mediated ATP hydrolysis uncoupled from downstream ERK phosphorylation by coupling the formation of ADP to NADH oxidation through the enzymes pyruvate kinase and lactate dehydrogenase. When ADP production is initiated by addition of catalytic amounts of an activated Raf enzyme and non-phosphorylated MEK, one observes robust ADP production concomitant with Raf-mediated phosphorylation of MEK. The method is disclosed in: C. Rominger, M. Schaber, E. May. Assay for B-Raf Activity Based on Intrinsic MEK ATPase Activity.

[3] = system: Human melanoma cancer cells (SK-MEL-28); test: Cell growth inhibition assay (CellTiter-Glo), SK-MEL-28; format: cell-based
[4] = COLO 205, 72 h, Table 2a, 3 days incubation, read-out: Activity in Colo205 Tumor Cells
[5] = COLO 205, Table 2b, later runs, average for the one or more runs, categorized, read-out: IC50 for Colo205
[6] = B-Raf Activity, Table 1a, highest pIC50 for the one or more runs
[7] = B-Raf pIC50, Table 1b, later runs, average pIC50 for the one or more runs
[8] = SK-MEL-28, 72 h, Table 3a, 3 days incubation, read-out: Activity in SK-MEL-28 Tumor Cells
[9] = SK-MEL-28, Table 3b, later runs, average for the one or more runs, categorized, read-out: IC50 for SK-MEL-28
[10] = later runs, average pIC50 for the one or more runs

T1 sequence (P15056 2-766 V600E): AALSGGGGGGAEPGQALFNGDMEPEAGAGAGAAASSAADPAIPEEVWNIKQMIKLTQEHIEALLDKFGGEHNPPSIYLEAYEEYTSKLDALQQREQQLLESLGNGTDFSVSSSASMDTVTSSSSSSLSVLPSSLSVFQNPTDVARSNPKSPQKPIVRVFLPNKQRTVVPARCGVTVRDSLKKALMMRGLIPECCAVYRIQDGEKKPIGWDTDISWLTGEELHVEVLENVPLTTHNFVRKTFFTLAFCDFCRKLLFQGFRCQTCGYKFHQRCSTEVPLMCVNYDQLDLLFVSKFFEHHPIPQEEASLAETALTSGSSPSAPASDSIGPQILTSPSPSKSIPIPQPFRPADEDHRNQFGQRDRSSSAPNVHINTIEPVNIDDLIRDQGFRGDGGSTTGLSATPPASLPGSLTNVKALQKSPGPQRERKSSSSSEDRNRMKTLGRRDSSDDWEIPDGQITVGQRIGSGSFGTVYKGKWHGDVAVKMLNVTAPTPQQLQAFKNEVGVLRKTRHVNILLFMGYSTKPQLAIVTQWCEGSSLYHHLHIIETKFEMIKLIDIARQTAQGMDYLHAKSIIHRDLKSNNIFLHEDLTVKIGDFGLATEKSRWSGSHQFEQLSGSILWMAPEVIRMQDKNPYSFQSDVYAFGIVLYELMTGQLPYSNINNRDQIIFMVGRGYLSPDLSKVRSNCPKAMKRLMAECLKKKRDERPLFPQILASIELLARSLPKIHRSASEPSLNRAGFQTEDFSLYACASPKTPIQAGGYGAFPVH

IC50 [2, 10]	Structure (SMILES)	pIC50 [1, 4]	pIC50 [1, 5]	pIC50 [2, 6]	pIC50 [2, 7]	pIC50 [3, 8]	pIC50 [3, 9]
	CC(C)(C)c1nc(-c2cccc(NS(=O)(=O)c3c(F)cccc3F)c2)c(-c2ccnc(NCCS(C)(=O)=O)n2)s1 [Example 2, N-{3-[2-(1,1-Dimethylethyl)-5-(2-{[2-(methylsulfonyl)ethyl]amino}-4-pyrimidinyl)-1,3-thiazol-4-yl]phenyl}-2,6-difluorobenzenesulfonamide]	> 7.00	> 7.00	> 7.00	≥ 8.50	> 7.00	> 7.00
	CCOCCNc1nccc(-c2sc(C(C)C)nc2-c2ccc(F)c(NS(=O)(=O)c3c(F)cccc3F)c2)n1 [Example 4, N-{5-[5-(2-{[2-(Ethyloxy)ethyl]amino}-4-pyrimidinyl)-2-(1-methylethyl)-1,3-thiazol-4-yl]-2-fluorophenyl}-2,6-difluorobenzenesulfonamide]	6.00 to 7.00	5.00 to 6.00	> 7.00	6.00 to 7.50	6.00 to 7.00	6.00 to 7.00
	CC(C)c1nc(-c2ccc(F)c(NS(=O)(=O)c3c(F)cccc3F)c2)c(-c2ccnc(NCC3CCCO3)n2)s1 (stereo not shown) [Example 5, 2,6-Difluoro-N-[2-fluoro-5-(2-(1-methylethyl)-5-{2-[(tetrahydro-2-furanylmethyl)amino]-4-pyrimidinyl}-1,3-thiazol-4-yl)phenyl]benzenesulfonamide]	6.00 to 7.00	5.00 to 6.00	6.00 to 7.00	6.00 to 7.50	6.00 to 7.00	6.00 to 7.00
	CC(C)c1nc(-c2ccc(F)c(NS(=O)(=O)c3c(F)cccc3F)c2)c(-c2ccnc(NCC3CC3)n2)s1 [Example 6, N-{5-[5-{2-[(Cyclopropylmethyl)amino]-4-pyrimidinyl}-2-(1-methylethyl)-1,3-thiazol-4-yl]-2-fluorophenyl}-2,6-difluorobenzenesulfonamide]	< 6.00	5.00 to 6.00	> 7.00	6.00 to 7.50	< 6.00	5.00 to 6.00
	CC(C)c1nc(-c2ccc(F)c(NS(=O)(=O)c3c(F)cccc3F)c2)c(-c2ccnc(NCCCN3CCOCC3)n2)s1 [Example 7, 2,6-Difluoro-N-{2-fluoro-5-[2-(1-methylethyl)-5-(2-{[3-(4-morpholinyl)propyl]amino}-4-pyrimidinyl)-1,3-thiazol-4-yl]phenyl}benzenesulfonamide]	< 6.00	5.00 to 6.00	6.00 to 7.00	6.00 to 7.50	< 6.00	5.00 to 6.00
	CCNc1nccc(-c2sc(C(C)C)nc2-c2ccc(F)c(NS(=O)(=O)c3c(F)cccc3F)c2)n1 [Example 9, N-{5-[5-[2-(Ethylamino)-4-pyrimidinyl]-2-(1-methylethyl)-1,3-thiazol-4-yl]-2-fluorophenyl}-2,6-difluorobenzenesulfonamide]	< 6.00	5.00 to 6.00	6.00 to 7.00	6.00 to 7.50	< 6.00	5.00 to 6.00
	CC(C)(C)c1nc(-c2cccc(NS(=O)(=O)c3c(F)cccc3F)c2F)c(-c2ccnc(NCCCS(C)(=O)=O)n2)s1 [Example 12, N-{3-[2-(1,1-Dimethylethyl)-5-(2-{[3-(methylsulfonyl)propyl]amino}-4-pyrimidinyl)-1,3-thiazol-4-yl]-2-fluorophenyl}-2,6-difluorobenzenesulfonamide]	> 7.00	> 7.00	> 7.00	≥ 8.50	> 7.00	> 7.00
	CN(C)c1nc(-c2cccc(NS(=O)(=O)c3c(F)cccc3F)c2)c(-c2ccnc(N)n2)s1 [Example 112, N-{3-[5-(2-Amino-4-pyrimidinyl)-2-(dimethylamino)-1,3-thiazol-4-yl]phenyl}-2,6-difluorobenzenesulfonamide]		5.00 to 6.00	6.00 to 7.00	6.00 to 7.50		
	Nc1nccc(-c2sc(C3CCOCC3)nc2-c2cccc(NS(=O)(=O)c3ccoc3)c2Cl)n1 [Example 265, N-{3-[5-(2-amino-4-pyrimidinyl)-2-(tetrahydro-2H-pyran-4-yl)-1,3-thiazol-4-yl]-2-chlorophenyl}-3-furansulfonamide]				≥ 8.50		> 7.00
3.16 to 31.6 nM	Cc1nccc(-c2sc(C3CCOCC3)nc2-c2cccc(NS(=O)(=O)c3c(F)cccc3F)c2F)n1 [Example 315, 2,6-difluoro-N-{2-fluoro-3-[5-(2-methyl-4-pyrimidinyl)-2-(tetrahydro-2H-pyran-4-yl)-1,3-thiazol-4-yl]phenyl}benzenesulfonamide]						
3.16 to 31.6 nM	Cc1nccc(-c2sc(C(C)(C)CO)nc2-c2cccc(NS(=O)(=O)c3c(F)cccc3F)c2F)n1 [Example 316, 2,6-difluoro-N-{2-fluoro-3-[2-(2-hydroxy-1,1-dimethylethyl)-5-(2-methyl-4-pyrimidinyl)-1,3-thiazol-4-yl]phenyl}benzenesulfonamide]						
	CC1(c2nc(-c3cccc(NS(=O)(=O)c4ccoc4)c3F)c(-c3ccnc(N)n3)s2)CCNCC1 [Example 319, N-{3-[5-(2-amino-4-pyrimidinyl)-2-(4-methyl-4-piperidinyl)-1,3-thiazol-4-yl]-2-fluorophenyl}-3-furansulfonamide]				≥ 8.50		
	Cc1nccc(-c2sc(C3(C)CCNCC3)nc2-c2cccc(NS(=O)(=O)c3ccoc3)c2F)n1 [Example 320, N-{2-fluoro-3-[2-(4-methyl-4-piperidinyl)-5-(2-methyl-4-pyrimidinyl)-1,3-thiazol-4-yl]phenyl}-3-furansulfonamide]				≥ 8.50		
3.16 to 31.6 nM	Cc1nccc(-c2sc(C3CCNCC3)nc2-c2cccc(NS(=O)(=O)c3c(F)cccc3F)c2F)n1 [Example 321, 2,6-difluoro-N-{2-fluoro-3-[5-(2-methyl-4-pyrimidinyl)-2-(4-piperidinyl)-1,3-thiazol-4-yl]phenyl}benzenesulfonamide]						
	Nc1nccc(-c2sc(C3CCNCC3)nc2-c2cccc(NS(=O)(=O)c3c(F)cccc3F)c2F)n1 [Example 322, N-{3-[5-(2-amino-4-pyrimidinyl)-2-(4-piperidinyl)-1,3-thiazol-4-yl]-2-fluorophenyl}-2,6-difluorobenzenesulfonamide]				≥ 8.50		
3.16 to 31.6 nM	Cc1nccc(-c2sc(C3CCNCC3)nc2-c2cccc(NS(=O)(=O)c3ccoc3)c2F)n1 [Example 323, N-{2-fluoro-3-[5-(2-methyl-4-pyrimidinyl)-2-(4-piperidinyl)-1,3-thiazol-4-yl]phenyl}-3-furansulfonamide]						
	Nc1nccc(-c2sc(C3CCNCC3)nc2-c2cccc(NS(=O)(=O)c3ccoc3)c2F)n1 [Example 324, N-{3-[5-(2-amino-4-pyrimidinyl)-2-(4-piperidinyl)-1,3-thiazol-4-yl]-2-fluorophenyl}-3-furansulfonamide]				≥ 8.50		

Structure (SMILES)	IC50 [2, 10]	pIC50 [1, 4]	pIC50 [1, 5]	pIC50 [2, 6]	pIC50 [2, 7]	pIC50 [3, 8]	pIC50 [3, 9]
CC(C)CNc1nccc(-c2sc(C(C)(C)C)nc2-c2cccc(NS(=O)(=O)c3cc(F)ccc3F)c2)n1 [Example 3, N-[3-(2-(1,1-Dimethylethyl)-5-{2-[(2-methylpropyl)amino]-4-pyrimidinyl}-1,3-thiazol-4-yl)phenyl]-2,5-difluorobenzenesulfonamide]	3.16 to 31.6 nM	> 7.00	> 7.00	> 7.00		> 7.00	> 7.00
